For one data set, the system named is HIV-1 virus strain IIIB. In words: microbe, parasite or virus in culture. The following applies: for inhibition at 5 µM: read-out: inhibition of viral replication; for effect on viral replication (in words): non-activated CD4+ lymphocytes, HC 0.05 or 0.15 mM, ddI or AZT 5 μM; for p24-HIV production in culture supernatant: day 15, infected control 86215. How it is done: (§1) Non-activated CD4^+ cells were infected, then treated for 7 days by HC, ddI or the combination of the two, then activated by PHA and IL-2 (PHA-IL-2).
(§2) The CD4^+ lymphocytes were purified from PBMC with immunomagnetic beads (Dynabeads* M450). These cells were infected with the HIV-1 virus strain IIIB at a multiplicity of infection of 5 000 tissue culture infectious dose (TCID) per 10^6 cells (241 pg/ml p24 antigen equivalent of virus). After 2 hours of virus-cell contact, the cells were washed twice and placed in the culture medium RPMI 1640 (supplemented with 10% fetal calf serum (FCS), 2 mM glutamine, penicillin 100 IU/ml and Streptomycin 100 μg/ml) at a density of 1.3×10^6 cells/ml. ddI was immediately added at a concentration of 5 μM and HC at concentrations of 0.05 mM and […]. The drugs and culture medium were partially renewed (50%) on day 4, maintaining the same concentration of each. On day 7, in order to remove the drugs, the cells were washed twice and put back in culture in the presence of PHA at a concentration of 1 μg/ml and recombinant IL-2 at a concentration of 20 U/ml. This culture was maintained until day 25, with partial renewal (50%) of the medium twice a week. The number of viable cells was quantified by a tetrazolium-based colorimetric 3-(4,5-dimethylthiazol-2-yl)-2,5-diphenyltetrazolium bromide (MTT) method (Pauwels, R. et al J. Virol. Methods, 20, 309-321, (1988)), and activity is expressed as a percentage of the signal in the drug-free and virus-free control. Viral replication was quantified by measuring the HIV-1 p24 antigen by ELISA using the Dupont de Nemours kit.
In FIG. 2, there is shown a study of the activity of the combination of AZT and HC on non-activated CD4^+ lymphocytes infected with the HIV virus. The CD4^+ lymphocytes were purified from PBMC with immunomagnetic beads (Dynabeads* M450). These cells were infected with the HIV-1 virus strain IIIB at a multiplicity of infection of 5 000 tissue culture infectious dose (TCID) per 10^6 cells (241 pg/ml p24 antigen equivalent of virus). After 2 hours of virus-cell contact, the cells were washed twice and placed in the culture medium RPMI 1640 (supplemented with 10% FCS, 2 mM glutamine, penicillin 100 IU/ml and streptomycin 100 μg/ml) at a density of 1.3×10^6 cells/ml. AZT was immediately added at a concentration of 5 μM and HC at a concentration of 0.05 mM and 0.15 mM. The drugs and culture medium were partially renewed (50%) on day 4, maintaining the same concentration of each. On day 7, in order to remove the drugs, the cells were washed twice and put back in culture in the presence of PHA at a concentration of 1 μg/ml and recombinant IL-2 at a concentration of 20 U/ml. This culture was maintained until day 25, with partial renewal (50%) of the medium twice a week. The number of viable cells was quantified by a tetrazolium-based colorimetric 3-(4,5-dimethylthiazol-2-yl)-2,5-diphenyltetrazolium bromide (MTT) method (Pauwels, R. et al J. Virol. Methds, 20,309-321, (1988)), and activity is expressed as a percentage of the signal in the drug-free and virus-free control. Viral replication was quantified by measuring the HIV-1 p24 antigen by ELISA using the Dupont de Nemours kit.

In data set [1] the test system is non-activated CD4+ lymphocytes. The experiment in a line: in vitro. The following applies: after PHA-IL-2 stimulation. How it is done: as §1
as §2, with “This culture was maintained until day 25, with partial renewal (50%) of the medium twice a week.” left out
(§3) In FIG. 2, there is shown a study of the activity of the combination of AZT and HC on non-activated CD4^+ lymphocytes infected with the HIV virus. […] The number of viable cells was quantified by a tetrazolium-based colorimetric 3-(4,5-dimethylthiazol-2-yl)-2,5-diphenyltetrazolium bromide (MTT) method (Pauwels, R. et al J. Virol. Methds, 20,309-321, (1988)), and activity is expressed as a percentage of the signal in the drug-free and virus-free control. Viral replication was quantified by measuring the HIV-1 p24 antigen by ELISA using the Dupont de Nemours kit.

For a further data set, the system named is HIV-1 strain IIIB. In words: microbe, parasite or virus in culture. The following applies: for p24 production: day 6. On the procedure: (§4) The PBMC were purified from peripheral blood by discontinous Ficoll density gradient centrifugation. The cells were grown at a density of 1.3×10^6 cells/ml in RPMI 1640 medium supplemented with 10% FCS, 2 mM glutamine, penicillin 100 IU/ml and streptomycin 100 μg/ml, in the presence of PHA at a concentration of 1 μg/ml and recombinant IL-2 at 20 U/ml for 72 hours, then infected by HIV-1 strain IIIB at a multiplicity of 5000 TCID for 10^6 cells (241 pg/ml p24 antigen equivalent of virus). In FIG. 3, the first time point represent viral infection of the cells. After 2 hours of virus-cell contact, the cells were washed twice and placed in the culture medium containing IL-2 but without PHA in the presence of ddI at a concentration of 10 μM and of HC at a concentration of 0.15 mM. These cultures were maintained for 20 days, with partial renewal of the medium and of the two drugs twice a week maintaining the initial concentration. At day 6 and day 14 fresh uninfected donor PBMC were added (5×10^5 /ml) to replenish aged cultures (Nature, 361:1993, 650-654). The number of viable cells were quantified by a tetrazolium-based colorimetric 3-(4,5-dimethylthiazol-2-yl)-2,5-diphenyltetrazolium bromide (MTT) method (Pauwels, R. et al J. Virol. Methods, 20:309-321, (1988)), and activity is expressed as a percentage of the signal in the drug-free and virus-free control. Viral replication was quantified by measuring the HIV-1 p24 antigen by ELISA using the Dupont de Nemours kit.

Another data set is described as follows: in vitro. The note with it: human, cd4+ lymphocytes. On the procedure:
as §1
as §2, with “This culture was maintained until day 25, with partial renewal (50%) of the medium twice a week.” left out
as §3

The test system of data set [2] is PBMC preactivated with PHA and IL-2. In words: Inhibitory concentration 50% in preactivated PBMC by MTT test. The note with it: 72 h, read-out: IC50 (inhibitory concentration 50%), after 3 days. In kind it is cell-based. On the procedure:
as §4, with “At day 6 and day 14 fresh uninfected donor PBMC were added (5×10^5 /ml) to replenish aged cultures (Nature, 361:1993, 650-654).” left out

The nature of data set [3]: Cell viability of preactivated PBMC by Trypan Blue exclusion. It is filed as cell-based. The note with it: human, HC 0.15 mM, 2% Trypan Blue exclusion, read-out: cellular viability.
The nature of data set [4]: Cytotoxicity in non-activated lymphocytes (PBLs) pretreated 24 h and then activated 48 h. In kind it is cell-based. The following applies: human, HC 1 mM, 24 h pretreatment, then PHA and IL-2 for 48 h in presence of HC, read-out: PBLs dying due to the drug's toxicity. From the text:
Under such conditions, greater than 70% of the PBLs die due to the drug's toxicity.

Data set [5] has as its system dNTP pools in PHA-stimulated PBLs. The following applies: HC 1 mM, cited from earlier work.
Setting [6] is: Human immunodeficiency virus 1, IIIB, Lymphocyte.
Setting [7] is: single drug 5 μM, infected control 86215 pg p24/ml.
Where [8] appears, read: Human immunodeficiency virus 1, IIIB, PBMC, 144 h, read-out: inhibition of viral replication.

The text below walks through data of patent US6093702A, “Mixtures of dideoxy-nucleosides and hydroxycarbamide for inhibiting retroviral spread” (The United States of America as represented by the …, priority 1995, dated 2000).

“Also recorded” adds a separate entry of the source. Like-named read-outs stand apart in the source and are kept apart here. Some results are limits rather than exact numbers.

What is called inhibition is the relative decrease from the control value, in per cent. Take `OC[C@@H]1CC[C@H](n2cnc3c(O)ncnc32)O1` [ddI, 2',3'-dideoxy-inosine]: the inhibition at 5 µM in the data set with HIV-1 virus strain IIIB (setting [6]) came out at 99.1%. The p24 production came out at 101080 pg p24/ml in the data set with HIV-1 virus strain IIIB (ddI 5 μM alone, day 25); 766 pg p24/ml in the data set on HIV-1 virus strain IIIB (setting [7]); 2071 pg p24/ml in the data set with HIV-1 strain IIIB (ddI alone 10 μM). Further, the “effect on viral replication (in words)” value with HIV-1 virus strain IIIB is “reached substantially the same level of p24 production as the infected control; also recorded: only temporarily and partially inhibited”. Besides, in data set [1], the “proliferative cellular response / cytopathic effect (in words)” value is listed as “cytopathic effect was observed later”. Further, in the data set on HIV-1 strain IIIB (setting [8]), the inhibition at 10 µM stood at 97.1%.

As for `Cc1cn([C@H]2C[C@H](N=[N+]=[N-])[C@@H](CO)O2)c(=O)[nH]c1=O` [AZT, 3'-azido-2',3'-dideoxythymidine], the log reduction at 5 µM with HIV-1 virus strain IIIB (Human immunodeficiency virus 1, IIIB, Lymphocyte, read-out: antiviral activity (log reduction)) is below 1. Besides, the inhibition at 5 µM with HIV-1 virus strain IIIB (setting [6]) amounted to 88.4%. The “effect on viral replication (in words)” value with HIV-1 virus strain IIIB is on record as “only slight antiviral activity; also recorded: only a slight effect on viral replication”. For the same compound, the p24 production in the data set on HIV-1 virus strain IIIB (setting [7]) came out at 10300 pg p24/ml.

Usually viability stands for the share of living cells, or the viability signal relative to a control. `NC(=O)NO` [HC, hydroxycarbamide]: the “p24-HIV production in culture supernatant” value with HIV-1 virus strain IIIB (HC 0.05 mM) is 75460 pg of p24/ml; in the data set on HIV-1 virus strain IIIB (HC 0.15 mM), 82005 pg of p24/ml. Also, the “effect on viral replication (in words)” value in the data set with HIV-1 virus strain IIIB was “incapable of preventing the production of infectious virions”. Besides, in “in vitro”, the cytotoxicity at 50 µM is above 50%. In addition, the cytotoxicity at 150 µM in the data set “in vitro” is above 50%. The p24 production in the data set with HIV-1 strain IIIB (HC alone 0.15 mM) came to 12500 pg p24/ml. The inhibition at 150 µM with HIV-1 strain IIIB (setting [8]) amounted to 82.6%. Besides, the IC50 in data set [2] amounted to 150 µM. Besides, the viability at 72 h, 150 µM in data set [3] was above 90%. Further, in data set [4], the cytotoxicity at 72 h, 1000 µM is above 70%. In addition, the “effect on dNTP levels and DNA synthesis rate (in words)” value in data set [5] (listed as hydroxyurea) is “decreases dNTP levels and the DNA synthesis rate to levels comparable to quiescent PBLs; also recorded: decreases the dNTP levels and the DNA synthesis rate to levels comparable to quiescent PBLs”; in data set [5] it was “partially reduces the various dNTP pools studied”.
